Data from ChEMBL document CHEMBL1152135, “New synthesis and evaluation of enantiomers of 7-methyl-2-exo-(3'-iodo-5'-pyridinyl)-7-azabicyclo[2.2.1]heptane as stereoselective ligands for PET imaging of nicotinic acetylcholine receptors” (Bioorg Med Chem Lett, 2008).

Experiment: Displacement of [3H]epibatine from nAChR in rat cortical membrane
Format: cell membranes

SMILES | Ki
CN1[C@@H]2CC[C@@H]1[C@@H](c1cncc(I)c1)C2 (stereo in doubt; (-)-5) | 1680 pM
Clc1ccc(C2CC3CCC2N3)cn1 (stereo not given) [EPIBATIDINE] | 46 pM
Ic1cncc([C@H]2C[C@H]3CC[C@H]2N3)c1 (stereo in doubt; (+)-4) | 48 pM
Ic1cncc([C@H]2C[C@H]3CC[C@H]2N3)c1 (stereo in doubt; (-)-4) | 45 pM
CN1[C@@H]2CC[C@@H]1[C@@H](c1cncc(I)c1)C2 (stereo in doubt; (+)-5) | 55 pM
